Laboratory results as given in ChEMBL document CHEMBL1201862, “PubChem BioAssay data set” (2004).
Calls of active or inactive are those of the source.

Tests used:
[1] = biological target: Intestinal-type alkaline phosphatase (Homo sapiens, UniProt P09923); test: inhibition of human intestinal alkaline phosphatase – biochemical, dose response (AID 488876); assay type: functional
[2] = biological target: Intestinal-type alkaline phosphatase (Mus musculus, UniProt P24822); test: PubChem AID 488785; assay type: functional
[3] = biological target: T1, Histone-lysine N-methyltransferase NSD2 (Homo sapiens, UniProt O96028); assay type: biochemical
T1 sequence (O96028 whole entry): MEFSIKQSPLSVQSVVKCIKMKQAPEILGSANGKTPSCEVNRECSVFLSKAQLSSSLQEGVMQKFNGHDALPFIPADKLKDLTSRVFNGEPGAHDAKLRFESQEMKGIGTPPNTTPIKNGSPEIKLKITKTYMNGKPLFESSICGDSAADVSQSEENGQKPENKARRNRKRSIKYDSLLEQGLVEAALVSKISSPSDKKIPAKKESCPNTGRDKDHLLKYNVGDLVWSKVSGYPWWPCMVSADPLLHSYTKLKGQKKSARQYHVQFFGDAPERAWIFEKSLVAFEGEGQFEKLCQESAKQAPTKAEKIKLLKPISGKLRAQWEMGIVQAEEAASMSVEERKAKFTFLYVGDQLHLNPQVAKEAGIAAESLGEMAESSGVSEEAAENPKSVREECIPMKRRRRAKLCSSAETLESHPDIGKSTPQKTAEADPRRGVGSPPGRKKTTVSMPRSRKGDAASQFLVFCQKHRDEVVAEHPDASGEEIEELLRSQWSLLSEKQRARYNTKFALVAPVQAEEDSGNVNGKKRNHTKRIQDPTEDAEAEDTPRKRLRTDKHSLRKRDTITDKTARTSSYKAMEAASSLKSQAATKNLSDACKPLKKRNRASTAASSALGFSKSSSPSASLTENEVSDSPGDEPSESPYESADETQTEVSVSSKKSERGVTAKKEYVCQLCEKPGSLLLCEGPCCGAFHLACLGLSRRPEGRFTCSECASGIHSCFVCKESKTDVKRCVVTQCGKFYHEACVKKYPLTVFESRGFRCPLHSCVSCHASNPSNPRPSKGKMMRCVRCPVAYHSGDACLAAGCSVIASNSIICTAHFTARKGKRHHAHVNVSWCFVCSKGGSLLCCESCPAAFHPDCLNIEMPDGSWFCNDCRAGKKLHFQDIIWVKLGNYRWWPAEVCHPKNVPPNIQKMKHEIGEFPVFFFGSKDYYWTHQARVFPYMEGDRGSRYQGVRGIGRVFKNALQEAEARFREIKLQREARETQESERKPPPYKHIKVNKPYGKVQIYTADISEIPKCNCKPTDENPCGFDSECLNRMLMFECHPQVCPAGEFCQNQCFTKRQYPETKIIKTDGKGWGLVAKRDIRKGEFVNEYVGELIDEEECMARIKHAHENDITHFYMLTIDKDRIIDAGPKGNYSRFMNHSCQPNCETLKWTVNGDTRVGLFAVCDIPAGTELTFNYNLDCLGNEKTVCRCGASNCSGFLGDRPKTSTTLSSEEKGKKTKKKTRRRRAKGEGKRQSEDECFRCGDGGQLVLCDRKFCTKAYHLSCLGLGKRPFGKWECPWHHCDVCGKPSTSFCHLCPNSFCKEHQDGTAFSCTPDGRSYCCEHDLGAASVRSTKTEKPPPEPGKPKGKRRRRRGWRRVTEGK

[4] = biological target: T2, Alkaline phosphatase, tissue-nonspecific isozyme (Homo sapiens, UniProt P05186); test: TNAP enzyme inhibition by screening hits, dose response, selectivity assay for mouse IAP inhibitor project, biochemical, human TNAP, uHTS hits (AID 488906); assay type: functional
T2 sequence (P05186 whole entry): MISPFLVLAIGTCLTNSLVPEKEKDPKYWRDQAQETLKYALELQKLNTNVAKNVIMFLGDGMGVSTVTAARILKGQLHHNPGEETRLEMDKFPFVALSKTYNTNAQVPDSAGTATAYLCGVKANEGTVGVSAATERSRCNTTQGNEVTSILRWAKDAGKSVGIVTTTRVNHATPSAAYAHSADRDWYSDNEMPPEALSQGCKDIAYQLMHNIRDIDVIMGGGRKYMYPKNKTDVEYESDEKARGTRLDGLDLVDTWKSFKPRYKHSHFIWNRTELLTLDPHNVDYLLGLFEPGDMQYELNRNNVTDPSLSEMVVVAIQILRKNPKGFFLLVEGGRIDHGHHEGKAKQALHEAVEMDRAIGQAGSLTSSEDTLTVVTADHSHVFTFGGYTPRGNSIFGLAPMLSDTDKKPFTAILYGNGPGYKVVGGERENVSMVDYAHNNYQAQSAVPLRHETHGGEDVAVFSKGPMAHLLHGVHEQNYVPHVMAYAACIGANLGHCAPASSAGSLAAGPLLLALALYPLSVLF

[5] = Counterscreen for AddAB inhibitors: absorbance-based bacterial cell-based high throughput dose response assay for inhibitors of bacterial viability. [Related pubchem assays (depositor defined):AID435030, AID449728, AID449731, AID488942, AID488955, AID488956]; assay type: functional
Exodeoxyribonuclease V = Exodeoxyribonuclease V (Escherichia coli (strain K12), UniProt P04993+P07648+P08394); test: RecBCD inhibition via phage-restricted bacterial growth – absorbance, V66 E. coli, mutant T4 phage, counter-screen for AddAB inhibitor project, dose response (AID 492957); assay type: functional, cell-based, Escherichia coli str. K-12 substr. MG1655
[6] = fluconazole-exposed Candida albicans growth modulators – fluorescence, retest, confirmation (AID 2467); assay type: functional, cell-based
[7] = NIH-3T3 fibroblast cytotoxicity, dose response, cytotoxicity control, cell-based, fluorescence, Alamar Blue, secondary assay (AID 2327); assay type: functional;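 further: NIH-3T3 mouse fibroblasts cultured with fluconazole at 8 µg/mL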
Cysteine protease ATG4B = Cysteine protease ATG4B (Homo sapiens, UniProt Q9Y4P1); assay type: functional;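 further: Fluorescence-based dose-response confirmation assay measuring inhibition of ATG4B activity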
Phospholipase A2 = Phospholipase A2 (Homo sapiens, UniProt P04054); assay type: functional;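 further: confirmatory dose-response counterscreen on phospholipase A2, testing hits that came from an ultra-high-throughput screen for ATG4B inhibitors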
[8] = biological target: Peroxisome proliferator-activated receptor gamma/Nuclear receptor coactivator 2 (Homo sapiens, UniProt P37231); test: (§1) TR-FRET dose response biochemical High Throughput Screening assay for agonists of the steroid receptor coactivator 2 (SRC-2) recruitment by the peroxisome proliferator-activated receptor gamma (PPAR gamma): non-selective agonists. [Related pubchem assays: 1297, 1032 ]; assay type: functional
[9] = biological target: Peroxisome proliferator-activated receptor gamma/Nuclear receptor coactivator 3 (Homo sapiens, UniProt P37231); test: as §1, with “3 (SRC-3)” for “2 (SRC-2)”, “1301 (Confirmation screen.), 1048 (Primary screen.)]” for “1297, 1032 ]”; assay type: functional
[10] = biological target: Peroxisome proliferator-activated receptor gamma/Nuclear receptor coactivator 1 (Homo sapiens, UniProt P37231); test: as §1, with “1 (SRC-1)” for “2 (SRC-2)”, “assays (depositor defined):AID1300, AID1808, AID504735, AID631]” for “assays: 1297, 1032 ]”; assay type: protein assay

Sequence of Cysteine protease ATG4B (Q9Y4P1 whole entry): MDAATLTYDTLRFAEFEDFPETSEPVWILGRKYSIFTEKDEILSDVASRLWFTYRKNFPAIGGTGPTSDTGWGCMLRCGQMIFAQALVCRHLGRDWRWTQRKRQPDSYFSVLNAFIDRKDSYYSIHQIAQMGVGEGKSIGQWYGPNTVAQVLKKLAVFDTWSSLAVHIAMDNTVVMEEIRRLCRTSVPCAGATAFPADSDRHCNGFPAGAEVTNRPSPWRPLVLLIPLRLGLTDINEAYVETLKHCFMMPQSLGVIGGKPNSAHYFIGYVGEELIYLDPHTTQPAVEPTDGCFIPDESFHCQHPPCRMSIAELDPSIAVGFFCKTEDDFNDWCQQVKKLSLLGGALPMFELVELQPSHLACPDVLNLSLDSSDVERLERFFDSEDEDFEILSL
Sequence of Exodeoxyribonuclease V (P04993 whole entry): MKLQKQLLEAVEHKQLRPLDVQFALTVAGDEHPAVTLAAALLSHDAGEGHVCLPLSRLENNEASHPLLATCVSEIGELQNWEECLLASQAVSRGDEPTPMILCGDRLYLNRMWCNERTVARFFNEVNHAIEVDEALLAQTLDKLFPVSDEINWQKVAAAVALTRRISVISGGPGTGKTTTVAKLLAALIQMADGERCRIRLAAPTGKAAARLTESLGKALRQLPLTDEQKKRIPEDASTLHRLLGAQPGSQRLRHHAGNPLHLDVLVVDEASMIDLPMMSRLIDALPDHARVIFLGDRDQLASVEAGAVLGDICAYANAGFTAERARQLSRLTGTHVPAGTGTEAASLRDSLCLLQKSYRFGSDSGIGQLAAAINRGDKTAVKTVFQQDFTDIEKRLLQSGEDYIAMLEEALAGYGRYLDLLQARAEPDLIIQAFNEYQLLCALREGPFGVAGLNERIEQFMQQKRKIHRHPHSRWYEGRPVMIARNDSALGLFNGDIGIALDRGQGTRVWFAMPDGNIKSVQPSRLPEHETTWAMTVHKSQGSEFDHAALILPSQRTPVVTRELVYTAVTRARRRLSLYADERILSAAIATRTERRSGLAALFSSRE
Sequence of Exodeoxyribonuclease V (P07648 whole entry): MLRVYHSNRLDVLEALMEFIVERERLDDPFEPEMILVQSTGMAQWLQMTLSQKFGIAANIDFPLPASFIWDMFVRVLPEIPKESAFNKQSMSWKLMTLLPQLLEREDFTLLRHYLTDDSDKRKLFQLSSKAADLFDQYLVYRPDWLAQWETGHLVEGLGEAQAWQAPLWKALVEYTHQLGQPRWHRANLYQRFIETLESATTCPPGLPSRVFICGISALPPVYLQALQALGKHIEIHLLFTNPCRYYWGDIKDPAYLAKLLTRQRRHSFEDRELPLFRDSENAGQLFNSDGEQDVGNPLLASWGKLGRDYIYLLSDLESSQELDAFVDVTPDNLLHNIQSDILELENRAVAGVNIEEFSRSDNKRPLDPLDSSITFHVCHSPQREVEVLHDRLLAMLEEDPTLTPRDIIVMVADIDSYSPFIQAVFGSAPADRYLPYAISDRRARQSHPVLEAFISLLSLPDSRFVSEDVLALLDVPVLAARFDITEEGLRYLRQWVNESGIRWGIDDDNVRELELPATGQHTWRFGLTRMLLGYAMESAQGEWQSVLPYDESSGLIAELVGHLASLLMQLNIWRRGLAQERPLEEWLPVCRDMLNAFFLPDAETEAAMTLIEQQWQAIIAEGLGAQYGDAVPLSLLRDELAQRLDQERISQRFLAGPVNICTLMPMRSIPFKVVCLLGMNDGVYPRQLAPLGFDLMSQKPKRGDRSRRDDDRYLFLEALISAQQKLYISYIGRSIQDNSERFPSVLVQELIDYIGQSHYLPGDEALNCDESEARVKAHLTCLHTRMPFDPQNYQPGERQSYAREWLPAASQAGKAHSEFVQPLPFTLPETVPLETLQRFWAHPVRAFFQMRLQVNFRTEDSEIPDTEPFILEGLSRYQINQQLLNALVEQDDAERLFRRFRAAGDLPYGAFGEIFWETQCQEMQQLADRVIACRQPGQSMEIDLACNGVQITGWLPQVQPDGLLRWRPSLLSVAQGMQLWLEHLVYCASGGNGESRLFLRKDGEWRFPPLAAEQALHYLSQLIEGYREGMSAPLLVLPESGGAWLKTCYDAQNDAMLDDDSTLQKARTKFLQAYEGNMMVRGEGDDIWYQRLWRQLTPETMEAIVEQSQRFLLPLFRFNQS
Sequence of Exodeoxyribonuclease V (P08394 whole entry): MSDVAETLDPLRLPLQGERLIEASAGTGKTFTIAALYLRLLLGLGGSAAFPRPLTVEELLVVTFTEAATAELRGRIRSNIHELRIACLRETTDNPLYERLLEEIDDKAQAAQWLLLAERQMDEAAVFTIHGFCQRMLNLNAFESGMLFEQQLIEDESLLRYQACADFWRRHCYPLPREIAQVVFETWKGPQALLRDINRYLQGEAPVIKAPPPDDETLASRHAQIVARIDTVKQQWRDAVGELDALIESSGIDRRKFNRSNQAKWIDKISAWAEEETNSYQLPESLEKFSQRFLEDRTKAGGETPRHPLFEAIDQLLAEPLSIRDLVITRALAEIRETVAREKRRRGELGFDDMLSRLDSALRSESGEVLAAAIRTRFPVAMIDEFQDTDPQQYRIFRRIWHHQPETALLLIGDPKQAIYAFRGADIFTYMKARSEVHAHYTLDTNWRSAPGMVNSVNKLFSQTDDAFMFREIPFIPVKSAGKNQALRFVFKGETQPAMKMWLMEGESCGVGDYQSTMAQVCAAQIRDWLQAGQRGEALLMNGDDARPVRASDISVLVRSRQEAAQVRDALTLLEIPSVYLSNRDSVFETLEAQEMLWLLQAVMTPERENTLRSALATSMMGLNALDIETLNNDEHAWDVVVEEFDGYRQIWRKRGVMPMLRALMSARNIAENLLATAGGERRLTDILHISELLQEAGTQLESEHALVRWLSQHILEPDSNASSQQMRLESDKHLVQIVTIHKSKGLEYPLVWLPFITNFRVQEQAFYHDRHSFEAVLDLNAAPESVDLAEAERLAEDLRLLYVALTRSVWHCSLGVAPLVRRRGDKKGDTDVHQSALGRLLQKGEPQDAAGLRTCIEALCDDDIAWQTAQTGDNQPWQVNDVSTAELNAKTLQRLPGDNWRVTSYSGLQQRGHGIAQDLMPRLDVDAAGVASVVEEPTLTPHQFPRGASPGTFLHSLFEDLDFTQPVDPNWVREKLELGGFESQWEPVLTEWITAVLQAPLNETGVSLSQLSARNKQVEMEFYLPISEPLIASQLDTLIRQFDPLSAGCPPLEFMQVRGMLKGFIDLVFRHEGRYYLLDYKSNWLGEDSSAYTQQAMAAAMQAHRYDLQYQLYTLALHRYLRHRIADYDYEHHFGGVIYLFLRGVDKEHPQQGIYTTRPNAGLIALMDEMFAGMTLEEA
Sequence of Intestinal-type alkaline phosphatase (Homo sapiens, UniProt P09923) (P09923 whole entry): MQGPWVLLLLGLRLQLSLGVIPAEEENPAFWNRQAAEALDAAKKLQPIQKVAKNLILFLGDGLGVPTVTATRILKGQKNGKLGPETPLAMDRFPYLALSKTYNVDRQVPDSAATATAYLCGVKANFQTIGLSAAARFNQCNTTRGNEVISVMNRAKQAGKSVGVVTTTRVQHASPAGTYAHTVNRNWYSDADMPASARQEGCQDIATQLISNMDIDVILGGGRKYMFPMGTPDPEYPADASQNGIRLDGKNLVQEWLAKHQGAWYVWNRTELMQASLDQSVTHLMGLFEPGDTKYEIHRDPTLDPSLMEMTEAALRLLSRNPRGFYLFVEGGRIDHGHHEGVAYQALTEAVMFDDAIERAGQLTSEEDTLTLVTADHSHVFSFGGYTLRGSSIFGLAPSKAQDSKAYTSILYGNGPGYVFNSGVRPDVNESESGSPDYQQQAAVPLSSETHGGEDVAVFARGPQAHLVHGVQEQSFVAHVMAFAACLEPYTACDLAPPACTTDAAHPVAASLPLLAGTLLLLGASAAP
Sequence of Intestinal-type alkaline phosphatase (Mus musculus, UniProt P24822) (P24822 whole entry): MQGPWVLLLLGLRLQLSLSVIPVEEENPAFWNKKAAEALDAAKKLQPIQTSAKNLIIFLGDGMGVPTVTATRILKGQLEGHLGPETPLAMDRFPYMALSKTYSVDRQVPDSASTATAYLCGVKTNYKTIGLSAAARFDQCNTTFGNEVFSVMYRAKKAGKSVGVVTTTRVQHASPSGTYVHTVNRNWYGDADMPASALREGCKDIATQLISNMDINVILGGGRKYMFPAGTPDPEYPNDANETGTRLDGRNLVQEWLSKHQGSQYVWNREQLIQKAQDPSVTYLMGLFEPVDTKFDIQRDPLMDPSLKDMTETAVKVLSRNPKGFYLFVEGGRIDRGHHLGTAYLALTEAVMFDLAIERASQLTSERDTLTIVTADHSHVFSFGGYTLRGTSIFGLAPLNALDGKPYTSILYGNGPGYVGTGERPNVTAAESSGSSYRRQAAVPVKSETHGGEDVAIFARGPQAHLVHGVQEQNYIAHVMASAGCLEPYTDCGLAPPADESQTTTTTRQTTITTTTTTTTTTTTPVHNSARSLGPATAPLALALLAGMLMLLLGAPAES
Sequence of Phospholipase A2 (P04054 whole entry): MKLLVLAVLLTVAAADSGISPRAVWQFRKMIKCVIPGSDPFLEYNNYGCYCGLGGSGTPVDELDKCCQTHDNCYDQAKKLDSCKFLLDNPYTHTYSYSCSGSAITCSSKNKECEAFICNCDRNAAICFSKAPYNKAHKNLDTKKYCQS

SMILES: CN1C(=O)NC(=O)/C(=C/c2ccc([N+](=O)[O-])o2)C1=O
- IC50 [1]: > 100 µM (inactive)
- IC50 [2]: 43.8 µM (active)
- AC50 [3]: 15.4 µM (active)
- IC50 [4]: > 100 µM (inactive)

SMILES: Cc1ccc(NC(=O)Cn2cnc3ccccc32)cc1C
- IC50 [5]: > 119 µM (inactive)
- IC50 (Exodeoxyribonuclease V): > 119 µM (inactive)

SMILES: CCOC(=O)c1c(-c2ccccc2)oc2cc(Br)c(O)c(C=O)c12
- EC50 [6]: 2.69 µM (active)
- EC50 [7]: 4.74 µM (inconclusive)
- IC50 (Cysteine protease ATG4B): 9.27 µM (active)
- IC50 (Phospholipase A2): 3.36 µM (active)

SMILES: Cn1c(=O)cc(SCC(=O)N2CCN(c3ccccc3)CC2)c2ccccc21
- EC50 [8]: 185 µM (not active)
- EC50 [9]: > 79.4 µM (not active)
- EC50 [10]: > 79.4 µM (inactive)
